Assay results reported in US7074412B2, “Pharmaceutical composition” (The University of Zurich, priority 2003, dated 2006).

Key:
MC3T3-E1 cells [1] = assay: alkaline phosphatase activity as marker of maturation of preosteoblastic cell line; assay type: cell-based
Experimental: (§1) MC3T3-E1 cells were grown in an alpha-modified Minimum Essential Medium (Life Technologies, Inc., Grand Island, N.Y.) containing 10% fetal calf serum (Life Technologies, Inc.), 50 μg/ml gentamycin, and 50 μg/ml ascorbic acid. C3H10T1/2 cells were grown in basal medium Eagle, and 50 μg/ml gentamycin. To examine the action of NMP on both cell lines, 1×10^5 cells per well were plated in 6-well plates and NMP subsequently added. Medium exchange was performed after 3 days and alkaline phosphatase (ALP) was determined according to Lowry, O. et al. [J. Biol. Chem. 207 (1954) 19–37]: p-nitrophenol liberated was converted to p-nitrophenylate by adding 400 μl of 1 M NaOH, which was quantitated by measuring the absorbance at 410 nm (epsilon=17500/molxcm). Alkaline phosphatase activity was normalized to total protein and expressed as nmol nitrophenylate generated per min per mg protein.
First, to verify the osteoinductive activity of NMP an embryonic, murine, mesenchymal stem cell line C3H10T1/2 and a preosteoblastic cell line MC3T3-E1 were used and cultured as described above. C3H10T1/2 cells can differentiate into cartilage, bone or adipose cells, whereas MC3T3-E1 produces and releases autologous BMP. Alkaline phosphatase activity was used as a marker for the differentiation into the osteoblastic lineage. […]

C3H10T1/2 cells = assay: alkaline phosphatase activity in mesenchymal stem cell line; assay type: cell-based, murine; settings: C3H10T1/2 cells treated with up to 5 mM NMP; data not shown
Experimental: as §1
First, to verify the osteoinductive activity of NMP an embryonic, murine, mesenchymal stem cell line C3H10T1/2 and a preosteoblastic cell line MC3T3-E1 were used and cultured as described above. C3H10T1/2 cells can differentiate into cartilage, bone or adipose cells, whereas MC3T3-E1 produces and releases autologous BMP. Alkaline phosphatase activity was used as a marker for the differentiation into the osteoblastic lineage.

MC3T3-E1 cells [2] = assay: mineralization by Alizarin red-S staining; assay type: cell-based; settings: 4 weeks, 5 Mm glycerol phosphate and 1 μg/ml rhBMP-2, 2.5 Mm NMP vs no NMP
Experimental: Alizarin red-S staining was performed after 4 weeks according to Bodine, P. V. N., et al. [J Bone Mineral Res 11 (1996) 806–819].

rhBMP-2 dimers = molecular target: T1, rhBMP-2 dimers (Homo sapiens, UniProt P12643); assay: solubilization of rhBMP-2 pellets in phosphate buffered saline with pyrrolidones; settings: 2 h in phosphate buffered saline with increasing amounts of pyrrolidone
T1 sequence (P12643 283-396): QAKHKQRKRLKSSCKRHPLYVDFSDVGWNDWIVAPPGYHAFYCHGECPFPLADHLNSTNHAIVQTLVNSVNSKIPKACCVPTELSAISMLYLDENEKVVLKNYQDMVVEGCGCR
Experimental: Two to twenty micrograms of the rhBMP protein was lyophilized in a speed-vac to form a solid rhBMP disc. […] After 2 h the protein in the remaining disc was sedimented (22,000×g, 30 min) and the protein content of 20 μl from the supernatant determined by a slot-blot method (Weber, F. E., et al., 2002, supra).

| Compound | maturation determined by alkaline phosphatase activity, concentration dependence (MC3T3-E1 cells [1]; after 6 days, 0 to 5 Mm of NMP) | increase of alkaline phosphatase activity (factor) (MC3T3-E1 cells [1]; low doses of NMP, MC3T3-E1) | alkaline phosphatase activity (C3H10T1/2 cells) | mineralisation (alizarin-S-staining) (MC3T3-E1 cells [2]) | potential to solubilize rhBMP-2, grading in declining order (rhBMP-2 dimers) |
| --- | --- | --- | --- | --- | --- |
| CN1CCCC1=O [NMP, 1-methyl-2-pyrrolidone] | increases in a concentration dependent manner | 2.5–3.0 | not increased | increased mineralisation | 1-methyl-2-pyrrolidone (NMP)>1-ethyl-2-pyrrolidone (NEP)>2-pyrrolidone (PB)>1-cyclohexyl-2-pyrrolidone (CP) |
| O=C1CCCN1 [PB, 2-pyrrolidone] | – | – | – | – | 1-methyl-2-pyrrolidone (NMP)>1-ethyl-2-pyrrolidone (NEP)>2-pyrrolidone (PB)>1-cyclohexyl-2-pyrrolidone (CP) |
